The values below come from the OPERA property sets (Mansouri et al. 2018).

Structures are written as SMILES. Peptide text beside a SMILES is read from it.

Consider `CN(C1CCCCC1)C1CCCCC1`, for which the logP came out at 3.71.

With `Clc1cccc(-c2cccc(Cl)c2Cl)c1`, the logP was determined as 5.57. In turn, `CC(=O)c1cccc(C#N)c1` returned a logP of 1.16. The figure for `O=[N+]([O-])c1cccc2ccccc12` is 3.19; for `COc1ccc([N+](=O)[O-])cn1` it is 1.55. Consider `Cc1[nH]cnc1CSCCNc1cc[nH]c(=O)n1`, for which the logP is -0.4. `CC(=O)OCC(COC(C)=O)OC(C)=O` showed a logP of 0.25. `CCN(CC)C(C)C(=O)OCn1ncc2c(=O)[nH]cnc21` (centres undefined): the logP was found to be 0.72. In turn, `OCc1ccc2c(c1)OCO2` gave a lipophilicity (logP) of 1.05.

For `CCOP(=O)(N=C1SCC(C)S1)OCC` (centres undefined), the logP was 1.04. In turn, `Clc1ccc(-c2ccccc2)cc1` returned a logP of 4.61. The figure for `c1ccc2c(c1)sc1ccccc12` is 4.38.

Turning to `CCCCCCOc1ccc(S(N)(=O)=O)cc1`, the logP was determined as 2.93.

`CCCC(C)C1(CC)C(=O)N=C(O)NC1=O` (centres undefined) had a logP of 2.1. As to `COc1cccc(C(C)=O)c1`, the logP turned out to be 1.84. `Cc1[nH]cnc1CSCCNc1[nH]ccc(=O)c1[N+](=O)[O-]` registered a logP of -0.2. To `COc1ccc(CC#N)cc1` belongs 1.7; to `COCC(O)Cn1cnc([N+](=O)[O-])n1` (centres undefined), -0.49; to `CC(=O)OCC(=O)[C@@]1(O)CC[C@H]2[C@@H]3CCC4=CC(=O)CC[C@]4(C)[C@H]3C(=O)C[C@@]21C`, 2.1. To `CCCNC` belongs 0.84.

`CCCC(C)=O`: the logP stood at 0.91.

Turning to `CCCCCCOC(=O)n1cnc(C)c1CSCCNC(=NC#N)NC`, the logP was 3.1.

`C=C(C)C(=O)OCC(C)C` returned a logP of 2.66.

On to `CC1CCCCN1N=O` (centres undefined), for which the log partition coefficient (logP) came to 0.71. Turning to `O=C(O)c1ccccn1`, the logP was determined as 0.72. Compound `O=C(O)Cc1ccccc1Nc1c(F)cccc1Cl` displayed a logP of 3.8.

The compound `CC(=O)N[C@@H](CCC(N)=O)C(=O)N[C@@H](Cc1ccccc1)C(N)=O` (Ac-Gln-Phe-NH2) gave a logP of -1.14. In the case of `CCc1ccc(OC(=O)NC)cc1`, the logP came to 2.23. The figure for `c1c[nH]nn1` is -0.29. On to `Cc1cc[nH]c(=O)n1`, for which the logP is -1.45. To `COc1ccccc1OCC(=O)NNC(C)C` belongs 1.11; to `COc1cccc(C=O)c1O`, 1.37; to `CCCCCC(=O)NN`, 0.48. The figure for `O=C(OCC1CCC(n2cnc3c(=O)[nH]cnc32)O1)c1ccccc1` (centres undefined) is 0.66; for `Cl[C@@H]1CCCC[C@H]1Cl` it is 3.21.

Compound `CCCCCCc1ccc(C(=O)OCCN(C)C)cc1` gave a logP of 5.2. In turn, `N#CCc1ccc(Cl)cc1` had a logP of 2.47. To `NC(=O)Nc1nc(-c2ccccc2)no1` belongs 1.76. Compound `CCc1cccnc1` came in with a logP of 1.66. As for `N#Cc1ccc[nH]1`, the logP was 1.13.

The compound `FC(F)(F)c1ccccc1` displayed a logP of 3.01. To `O=C1CCC(=O)N1c1ccccc1[N+](=O)[O-]` belongs 0.36; to `O=C(O)c1ccc(Br)cc1`, 2.86. In the case of `Cc1cc(-c2ccccc2)nnc1NCCN1CCOCC1`, the logP was 2.03. In turn, `COc1noc2c1CNCC2` yielded a logP of -0.04. In the case of `COC(=O)C(=O)OC`, the logP was -0.17.

In turn, `CCNc1nc(NC(C)C)nc(SC(F)F)n1` gave a logP of 3.7. Compound `CC(=O)C(C)C` registered a logP of 0.84. Compound `CCOC(=O)C(=O)c1cccs1` returned a logP of 1.77. The compound `COc1ccnc2c([N+](=O)[O-])cccc12` had a logP of 1.92.

The compound `O=C1CCC(=O)N1c1ccccc1F` displayed a logP of 0.22.

As for `COc1cc2c(c(OC)c1OC)-c1ccc(N)c(=O)cc1[C@@H](NC(C)=O)CC2`, the logP stood at 0.3. In turn, `Nc1ccc(OC(=O)c2ccc(N)cc2O)cc1` gave a logP of 2.04.

With `Clc1cccc(-c2ccccc2Cl)c1`, the logP was 5.02. To `Nc1ccc(S(=O)(=O)Nc2ncccn2)cc1` belongs -0.09.

In the case of `CC(=O)NC1=CC(=O)c2ccccc2C1=O`, the logP is 1.29. For the compound `NC(CC12CC3CC(CC(C3)C1)C2)C(=O)O` (centres undefined), the lipophilicity (logP) stood at 0.43. For the compound `O=C(O)CCCn1nnc2ccccc21`, the logP is 0.01.

`CCCCc1c(C)nc(NCC)nc1OS(=O)(=O)N(C)C`: the logP stood at 2.7.

For `CN(C)C(=O)OCc1ccc([N+](=O)[O-])cc1`, the logP amounted to 1.95. As to `Cc1ccccc1C(O)c1ccccc1` (centres undefined), the logP stood at 3.06. Turning to `CC(=O)Nc1cccc(NC(C)=O)c1`, the logP was 0.5.

`NC(=O)Nc1ccc(F)cc1` had a logP of 1.04. In turn, `CC(C)(S)[C@@H](N)C(=O)O` registered a logP of -1.78. `COc1nnc(OC)c2ccccc12` gave a logP of 2.22. In turn, `O=C(O)CCCCCc1ccccc1` had a logP of 3.27. In turn, `COc1cc(CC(C)N)cc(OC)c1Br` (centres undefined) returned a logP of 2.44.

Compound `O=C(C=Cc1ccco1)c1ccco1` had a logP of 2.34. The figure for `NC12CC3CC(CC(C3)C1)C2` is 2.44; for `COC(=O)[C@@H]1C2CCC(C[C@@H]1OC(=O)c1ccccc1)N2C` (some centres undefined) it is 2.3; for `C#CCC(O)c1cccnc1` (centres undefined) it is 1.21.

`O=C(O)c1ccccc1Nc1ccccc1` registered a logP of 4.36. Compound `CC1OC(OC2C(O)CC(OC3C(O)CC(OC4CCC5(C)C(CCC6C5CCC5(C)C(C7COC(=O)C7)CCC65O)C4)OC3C)OC2C)CC(O)C1O` (centres undefined) had a logP of 2.9. `ClCCCCl`: the logP came out at 2. To `CCOP(=S)(OCC)N1C(=O)c2ccccc2C1=O` belongs 3.48; to `CCN(C(=O)SCc1ccccc1)C(C)C(C)C` (centres undefined), 4.6; to `CC(=O)N[C@H](C(=O)N[C@@H](Cc1ccccc1)C(=O)N[C@@H](C)C(N)=O)C(C)C` (Ac-Val-Phe-Ala-NH2), 0.06. The compound `Oc1cccc2c(O)cccc12` displayed a logP of 1.94. Turning to `CNC(=S)NCc1ccccc1`, the logP came to 1.35. On to `ClCC#CCCl`, for which the logP was 2.01.

As for `CCC1(C(C)CC(C)O)C(=O)NC(=O)NC1=O` (centres undefined), the logP turned out to be 0.35. The figure for `O=C(O)c1cc2ccccc2[nH]1` is 2.31; for `Clc1ccccc1-c1c(Cl)cccc1Cl` it is 5.48. Compound `CCOP(=O)(OCC)Oc1cc(C)nc(C(C)C)n1` returned a logP of 2.07. For `CCC(OC(C)=O)C(CC(C)N(C)C)(c1ccccc1)c1ccccc1` (centres undefined), the logP was 4.27. `O=C(O)CNC(=O)c1ccccc1`: the logP came to 0.31. As for `CN(C)C(N(C)C)=S(I)c1ccccc1` (centres undefined), the logP is -0.68. `CCCCSC1=CC(=O)c2ccccc2C1=O` had a log partition coefficient (logP) of 3.29.

The compound `COC(=O)c1cc(Oc2ccc(Cl)cc2Cl)ccc1[N+](=O)[O-]` yielded a logP of 4.48. `NC(=O)c1cccnc1` came in with a logP of -0.37. In turn, `O=C1C=CC(=O)C(Cl)=C1` returned a logP of 0.84.

Take `OCc1ccccc1O`: the logP came out at 0.73. Consider `NC(=O)CCCc1ccccc1`, for which the logP turned out to be 1.41. As to `N#Cc1cccc(C=O)c1`, the logP is 1.18. Compound `O=S(=O)(Nc1ccccc1)c1ccccc1` registered a logP of 2.58.

Turning to `Nc1ccc(C(=O)Oc2cccc(C(F)(F)F)c2)c(O)c1`, the logP came to 3.61. To `O=C(Oc1ccccc1)Oc1ccccc1` belongs 3.28; to `COC(=O)Cc1cccs1`, 1.51; to `CC(=O)OC1(C(=O)CO)CCC2C3CCC4=CC(=O)CCC4(C)C3C(=O)CC21C` (centres undefined), 2.45. In the case of `Cc1cccc(C2CNCCO2)c1` (centres undefined), the logP turned out to be 1.52. In the case of `Brc1ccc2cccnc2c1`, the logP amounted to 2.92.

Compound `COc1ccccc1-c1nc(N)nc(N)n1` showed a logP of 0.58.

In turn, `FC1(F)C(F)(F)C(F)(F)C(F)(F)C(F)(F)C1(F)F` gave a logP of 2.91. Compound `C=CC(=O)OCCO` displayed a logP of -0.21. The compound `CC(C)CC(N)C(=O)OCn1ncc2c(=O)[nH]cnc21` (centres undefined) yielded a logP of 0.19. `COCCNC(=S)C(F)(F)Cn1cnc([N+](=O)[O-])n1` yielded a logP of 0.66. The compound `CC1(C)N=C(N)N=C(N)N1c1ccc(Br)cc1` yielded a logP of 1.09. To `CCO[Si](C)(C)OCC` belongs 0.61; to `CCI`, 2.

Consider `OB(O)c1ccccc1`, for which the logP is 1.58. In the case of `NC(=O)c1ccc(Cl)cc1`, the log partition coefficient (logP) was determined as 1.55.

The compound `CC(C)CN(N=O)C(N)=O` came in with a logP of 1.04. For `Nc1nc(N)nc(-c2ccccc2[N+](=O)[O-])n1`, the logP was 0.49.

In the case of `Nc1ncnc2c1ncn2C1CC(O)C(CO)O1` (centres undefined), the logP is -0.55. The figure for `N#Cc1c(Cl)cccc1Cl` is 2.74. As for `OCC(CO)(CBr)CBr`, the logP is 1.06. Regarding `CC(=O)c1ccsc1`, the logP was 1.24. To `Oc1cnc2ccccc2n1` belongs 0.8; to `CN(C)C(N(C)C)=S(I)c1ccccc1I` (centres undefined), 0.3. Regarding `CC(CO)NCc1ccccc1` (centres undefined), the lipophilicity (logP) was 1.28. For the compound `CCCCCNc1nc(NC(C)C)nc(SC(F)F)n1`, the logP is 5.2. Consider `NNC(=O)c1ccnc(Cc2ccccc2)c1`, for which the logP was found to be 1.01. Turning to `CC(C)c1ccccc1OCC(=O)O`, the logP is 2.84. The compound `C=CCNCCC` returned a lipophilicity (logP) of 1.33. To `CN(C)N=Nc1cccc2oc3ccccc3c12` belongs 4.55; to `CC(C)S[C@@H]1O[C@H](CO)[C@H](O)[C@H](O)[C@H]1O`, -1.26; to `CON=C(C(=O)NC1C(=O)N2C(C(=O)OCOC(=O)C(C)(C)C)=C(CSc3nnnn3C)CSC12)c1csc(N)n1` (centres undefined), 1.74.

Compound `O=C1CCC(=O)N1c1cccc([N+](=O)[O-])c1` had a log partition coefficient (logP) of 0.38. Compound `O=[N+]([O-])c1ncn(CC(O)CCl)n1` (centres undefined) returned a logP of 0.05. In turn, `C=C(C)[C@H]1Cc2c(ccc3c2O[C@@H]2COc4cc(OC)c(OC)cc4[C@@H]2C3=O)O1` yielded a log partition coefficient (logP) of 4.1.

For the compound `Clc1ccc(Cl)c(-c2c(Cl)ccc(Cl)c2Cl)c1`, the logP was 6.55.

`COC(=O)c1cccc(N=NN(C)C)c1` displayed a logP of 3.12.

Consider `CN1C(=O)CN=C(c2ccccc2)c2cc(C#N)ccc21`, for which the logP was found to be 1.8. For the compound `CCC(=O)C1(c2cccc(OC(=O)C(C)(C)C)c2)CCN(C)CC1`, the logP came out at 2.59.

The term logP denotes the decadic logarithm of the partition coefficient of the neutral form, usually between octanol and water.
